# Measured values from US8263575B2, “Phosphoramidate derivatives of nucleoside compounds for use in the treatment of cancer” (Nucana Biomed Limited, priority 2005, dated 2012).
# Where two headings read alike, the source gives them in different places.
# Legend:
# Format in all cases: cell-based
# [1] = test system: HL60 leukemia cell line; assay: MTS assay (CellTiter96 Aqueous One solution proliferation assay), HL60; details: Table IA, read-out: IC50 ± standard deviation
# Protocol: (§1) Compounds CPF203, CPF204, CPF194, CPF210, CPF211, CPF212, CPF218 and CPT2001 were each tested in leukaemic cell lines to assess their anti-cancer efficacy. The compounds were tested using the MTS assay reagents from Promega (CellTiter96 Aqueous One solution proliferation assay). The compounds were tested between 10 μM and 0.002 μM in four fold dilutions.
# (§2) The cell lines employed are set out in Tables IA and IB below and are NB4, HL60, NB4R2, K562, KG1, and U937 leukemia cell lines.
# (§3) Table IA gives the IC50±standard deviation value for each cell line and compound tested and for all the cell lines together, in μM. Included in Table IA below, as a comparative example, is corresponding cell line data for cladribine. Table IB gives the IC50 value for each cell line and compound tested. Included in Table IB below, as a comparative example, is corresponding cell line data for clofarabine.
# [2] = test system: leukaemic cell lines; assay: MTS assay, all the cell lines together; details: for IC50: All lines, Table IA, read-out: IC50 ± standard deviation, all the cell lines together; for anti-leukaemic potency/activity (in words): data of Table IA
# Protocol: as §1, §2, §3
# [3] = test system: NB4R2 leukemia cell line; assay: MTS assay (CellTiter96 Aqueous One solution proliferation assay), NB4R2; details: Table IA, read-out: IC50 ± standard deviation
# Protocol: as §1, §2, §3
# [4] = test system: NB4 leukemia cell line; assay: MTS assay (CellTiter96 Aqueous One solution proliferation assay), NB4
# Protocol: as §1, §2, §3
# [5] = test system: K562 leukemia cell line; assay: MTS assay (CellTiter96 Aqueous One solution proliferation assay), K562; details: Table IA, read-out: IC50 ± standard deviation
# Protocol: as §1, §2, §3
# [6] = test system: U937 leukemia cell line; assay: MTS assay (CellTiter96 Aqueous One solution proliferation assay), U937
# Protocol: as §1, §2, §3
# [7] = test system: KG1 leukemia cell line; assay: MTS assay (CellTiter96 Aqueous One solution proliferation assay), KG1; details: Table IA, read-out: IC50 ± standard deviation
# Protocol: as §1, §2, §3
# [8] = NB4, Table IA, read-out: IC50 ± standard deviation
# [9] = U937, Table IA, read-out: IC50 ± standard deviation
IC50 [1] [µM],IC50 [2] [µM],IC50 [3] [µM],"IC50 [4, 8] [µM]",IC50 [5] [µM],"IC50 [6, 9] [µM]",IC50 [7] [µM],Compound,"anti-cancer activity compared to clofarabine ([2]; data of Table IB (NB4, U937))",IC50 [4] [µM],"IC50 ([6]; Homo sapiens, U-937) [µM]",anti-leukaemic potency/activity (in words) [2],"IC50 ([4]; NB4, Table IB, read-out: IC50) [µM]","IC50 ([6]; U937, Table IB, read-out: IC50) [µM]"
1.75 ± 0.76,1.6 ± 1.47,1.09 ± 0.04,0.27 ± 0.03,4.41 ± 0.95,0.55 ± 0.44,1.56 ± 0.25,"C[C@H](NP(=O)(OC[C@H]1O[C@@H](n2cnc3c(N)nc(Cl)nc32)C[C@@H]1O)Oc1ccc(Cl)c2ccccc12)C(=O)OCc1ccccc1 (stereo partly drawn) [CPF218, 2-chloro-2′-deoxyadenosine-5′-[4-chloro-1-naphthyl-(benzoxy-L-alaninyl)]-phosphate]",,,,,,
,,,,,,,C[C@@H](NP(=O)(OCC1OC(n2cnc3c(N)nc(Cl)nc32)C(F)C1O)Oc1ccccc1)C(=O)OCc1ccccc1 (stereo partly shown) [CPT2001],enhanced anti-cancer activity compared to clofarabine,0.12,0.08,,,
0.65 ± 0.19,1.04 ± 1.02,1.03 ± 0.15,0.24 ± 0.11,2.36 ± 1.57,0.19 ± 0.09,1.8 ± 0.72,"C[C@H](NP(=O)(OC[C@H]1O[C@@H](n2cnc3c(N)nc(Cl)nc32)C[C@@H]1O)Oc1cccc2ccccc12)C(=O)OCc1ccccc1 (stereo partly drawn) [CPF210, 2-chloro-2′-deoxyadenosine-5′-[1-naphthyl-(benzoxy-L-alaninyl)]-phosphate]",,,,greater anti-leukaemic potency than the corresponding compound CPF203,,
,,,,,,,"Nc1nc(Cl)nc2c1ncn2[C@@H]1O[C@H](CO)[C@@H](O)[C@@H]1F [Clofarabine, reference compound]",,,,,0.2,0.26
1.66 ± 0.24,1.41 ± 1.09,1.18 ± 0.21,0.43 ± 0.04,2.28 ± 1.32,0.28 ± 0.03,2.63 ± 1.19,"C[C@H](NP(=O)(OC[C@H]1O[C@@H](n2cnc3c(N)nc(Cl)nc32)C[C@@H]1O)Oc1cccc2ccccc12)C(=O)OCc1ccccc1 (stereo partly drawn) [CPF211, 2-chloro-2′-deoxyadenosine-5′-[1-naphthyl-(benzoxy-L-alaninyl)]-phosphate]",,,,,,
6.23 ± 1.75,2.64 ± 2.09,2.28 ± 0.59,1.16 ± 0.04,,1.29 ± 0.91,2.23 ± 0.69,2-chloro-2′-deoxyadenosine-5′-[phenyl-(methoxy-L-alaninyl)]-phosphate [CPF203],,,,,,
1.75 ± 0.89,0.67 ± 0.7,0.63 ± 0.04,0.23 ± 0.1,,0.08 ± 0.01,0.67 ± 0.2,"C[C@H](NP(=O)(OC[C@H]1O[C@@H](n2cnc3c(N)nc(Cl)nc32)C[C@@H]1O)Oc1ccccc1)C(=O)OCc1ccccc1 (stereo partly drawn) [CPF204, 2-chloro-2′-deoxyadenosine-5′-[phenyl-(benzoxy-L-alaninyl)]-phosphate]",,,,,,
1.78 ± 0.5,1.75 ± 2.34,1.01 ± 0.39,0.23 ± 0.04,5.8 ± 3.6,0.14 ± 0.15,1.54 ± 0.44,"C[C@H](NP(=O)(OC[C@H]1O[C@@H](n2cnc3c(N)nc(Cl)nc32)C[C@@H]1O)Oc1cccc2ccccc12)C(=O)OCc1ccccc1 (stereo partly drawn) [CPF212, 2-chloro-2′-deoxyadenosine-5′-[1-naphthyl-(benzoxy-L-alaninyl)]-phosphate]",,,,,,

Compound,IC50 [1] [µM],IC50 [2] [µM],IC50 [3] [µM],"IC50 [4, 8] [µM]",IC50 [5] [µM],"IC50 [6, 9] [µM]",IC50 [7] [µM],"anti-cancer activity compared to clofarabine ([2]; data of Table IB (NB4, U937))",IC50 [4] [µM],"IC50 ([6]; Homo sapiens, U-937) [µM]",anti-leukaemic potency/activity (in words) [2],"IC50 ([4]; NB4, Table IB, read-out: IC50) [µM]","IC50 ([6]; U937, Table IB, read-out: IC50) [µM]"
"C[C@H](NP(=O)(OC[C@H]1O[C@@H](n2cnc3c(Cl)nc(N)nc32)C[C@@H]1O)Oc1ccccc1)C(=O)OCc1ccccc1 (stereo partly drawn) [CPF194, 2-amino-6-chloropurine-2′-deoxyriboside-5′-[phenyl-(benzoxy-L-alaninyl)]-phosphate]",,2.64 ± 0.18,,,,,2.64 ± 0.18,,,,anti-leukaemic activity demonstrated,,
"Nc1nc(Cl)nc2c1ncn2[C@H]1C[C@H](O)[C@@H](CO)O1 [Cladribine, reference compound]",10.3 ± 3.46,7.21 ± 3.69,7.81 ± 1.64,9.39 ± 4.25,,2.08 ± 2.75,5.48 ± 1.86,,,,,,
